One assay addresses GCN2 (Homo sapiens, UniProt Q9P2K8). Briefly: GCN2 enzyme assay (TR-FRET Lanthascreen, GFP-eIF2alpha substrate). As to conditions: for GCN2 (enzyme assay) % at 10 μM: 100% corresponds to zero effect, −50% corresponds to IC50. Type of assay: biochemical. From the text:
GCN2: Assay Principle & Conditions
This assay can quantificate the activity of the serin kinase GCN2 (general control non-derepressible-2).
This kinase is involved in the stress metabolism of cells. It is activated upon starvation (amino acid depletion). Its natural substrate is eIF2a (eukaryotic initiation factor 2 alpha subunit), a translation factor, which gets activated (phosphorylated) by GCN2 in case of an amino acid bottleneck in the cells. This in turn leads to a halt of the protein synthesis. Inhibition of GCN2 results in stopping this mechanism: The cell can not stop protein production upon “starvation” stress.
The assay is run in two steps: the enzymatic reaction and the detection step. In the first step GCN2 is incubated with 10 μM ATP and 80 nM of the GFP-labelled substrate eIF2alpha at room temperature.
The enzymatic reaction is stopped by addition of EDTA. The amount of phosphorylated eIF2alpha is determined by TR-FRET (Lanthascreen): A complex is formed consisting of antibody and GFP labelled phospho-eIF2a, which allows a FRET upon exitation at 340 nm.
Final Concentrations in the Enzymatic Reaction • Hepes, pH 7.0 50 mM • MgCl2 10 mM • MnCl2 5 mM • BSA 0.1% • DMSO 1% • ATP 10 uM • DTT 2 mM • GFP-eIF2a 80 nM (substrate) • GCN2 30 nM (enzyme)

Another assay has as its target T1, SYK (Homo sapiens, UniProt P43405).
T1 construct: purchased BPS Bioscience, CA, USA
In words: SYK enzyme assay (Flash plate assay / Caliper mobility shift assay). It is filed as biochemical. As to conditions: for SYK (enzyme assay) % at 3 μM: 100% corresponds to zero effect, −50% corresponds to IC50. As to the method: The kinase assay is performed either as 384-well Flashplate assay (for e.g. Topcount measurement) or as 384-well Image-Flashplate assay (for LEADseeker measurement).
2.5 nM SYK, 400 nM Biotin-Aha-Aha-[…]
and 10 μM ATP (spiked with 0.3 μCi 33P-ATP/well) are incubated in a total volume of 50 μl (60 mM Hepes, 10 mM MgCl2, 1.2 mM Dithiothreitol, 0.02% Brij35, 0.1% BSA, pH 7.5) with or without test compound for 1 hours at 30° C. The reaction is stopped with 25 μl 200 mM EDTA. After 30 Min at 30° C. the liquid is removed and each well washed thrice with 100 μl 0.9% sodium chloride solution. Non-specific reaction is determined in presence of 0.1 μM Staurosporine. Radioactivity is measured with Topcount (when using Flashplates) or with LEADseeker (when using Image-Flashplates) respectively. Results (e.g. IC50-values) are calculated with program tools provided by the IT-department (e.g. Symyx Assay Explorer, Genedata Screener).
Enzymatic Assays Using the Caliper LifeSciences Technology
The assays described here are performed on the Caliper Life Sciences LC3000 system This technology provides data on enzyme activity via measurement of the relative amounts of phosphorylated or unphosphorylated fluorescently labelled substrate peptide at the end of an enzymatic reaction.
These different states of peptide are resolved by applying a potential difference across the sample. The presence of the charged phosphate group on the product (as opposed to the substrate) causes a different peptide mobility between the two peptides. This is visualized by excitation of the fluorescent label on the substrate and product peptides and represented as peaks within the analysis software.
In order to measure inhibitor activity of kinase inhibitors on this technology, a TTP Mosquito liquid handling instrument is used to place 0.25 ul of the appropriate concentration of inhibitor in 100% DMSO (for a dose response curve calculation) into each well of a 384-well plate. To this reaction components are added to a final volume of 25 ul. The table below indicates the sequences and concentrations for the assays described in this report. Standard components are 1 mM DTT (Sigma, D0632), 1 mM MgCl2 (Sigma, M1028), 100 mM HEPES pH 7.5 (Calbiochem, 391338), 0.015% Brij-35 (Sigma, B4184).
The reaction is incubated for 90 min at 25 C, and then stopped by the addition of 70 ul of Stop buffer (100 mM HEPES pH 7.5, 0.015% Brij-35, 10 mM EDTA (Sigma, E7889)).
The plate is read on a Caliper LC 3000 in an Off-Chip mobility shift assay format, on a 12-sipper chip. Unphosphorylated substrate and phosphorylated product peptide resolve as separate peaks allowing direct measurement of percentage of conversion of substrate to product. The percent conversion can be plotted against concentration of inhibitor to produce a sigmoidal dose response curve, from which an IC50 can be calculated using GeneData Condoseo or a similar product.

Some results are limits rather than exact numbers.

These results are taken from US20150051202A1, “TRIAZOLOPYRAZINE DERIVATIVES” (Merck Patent GmbH, priority 2012, published 2015).

Sequence of GCN2 (Q9P2K8 whole entry): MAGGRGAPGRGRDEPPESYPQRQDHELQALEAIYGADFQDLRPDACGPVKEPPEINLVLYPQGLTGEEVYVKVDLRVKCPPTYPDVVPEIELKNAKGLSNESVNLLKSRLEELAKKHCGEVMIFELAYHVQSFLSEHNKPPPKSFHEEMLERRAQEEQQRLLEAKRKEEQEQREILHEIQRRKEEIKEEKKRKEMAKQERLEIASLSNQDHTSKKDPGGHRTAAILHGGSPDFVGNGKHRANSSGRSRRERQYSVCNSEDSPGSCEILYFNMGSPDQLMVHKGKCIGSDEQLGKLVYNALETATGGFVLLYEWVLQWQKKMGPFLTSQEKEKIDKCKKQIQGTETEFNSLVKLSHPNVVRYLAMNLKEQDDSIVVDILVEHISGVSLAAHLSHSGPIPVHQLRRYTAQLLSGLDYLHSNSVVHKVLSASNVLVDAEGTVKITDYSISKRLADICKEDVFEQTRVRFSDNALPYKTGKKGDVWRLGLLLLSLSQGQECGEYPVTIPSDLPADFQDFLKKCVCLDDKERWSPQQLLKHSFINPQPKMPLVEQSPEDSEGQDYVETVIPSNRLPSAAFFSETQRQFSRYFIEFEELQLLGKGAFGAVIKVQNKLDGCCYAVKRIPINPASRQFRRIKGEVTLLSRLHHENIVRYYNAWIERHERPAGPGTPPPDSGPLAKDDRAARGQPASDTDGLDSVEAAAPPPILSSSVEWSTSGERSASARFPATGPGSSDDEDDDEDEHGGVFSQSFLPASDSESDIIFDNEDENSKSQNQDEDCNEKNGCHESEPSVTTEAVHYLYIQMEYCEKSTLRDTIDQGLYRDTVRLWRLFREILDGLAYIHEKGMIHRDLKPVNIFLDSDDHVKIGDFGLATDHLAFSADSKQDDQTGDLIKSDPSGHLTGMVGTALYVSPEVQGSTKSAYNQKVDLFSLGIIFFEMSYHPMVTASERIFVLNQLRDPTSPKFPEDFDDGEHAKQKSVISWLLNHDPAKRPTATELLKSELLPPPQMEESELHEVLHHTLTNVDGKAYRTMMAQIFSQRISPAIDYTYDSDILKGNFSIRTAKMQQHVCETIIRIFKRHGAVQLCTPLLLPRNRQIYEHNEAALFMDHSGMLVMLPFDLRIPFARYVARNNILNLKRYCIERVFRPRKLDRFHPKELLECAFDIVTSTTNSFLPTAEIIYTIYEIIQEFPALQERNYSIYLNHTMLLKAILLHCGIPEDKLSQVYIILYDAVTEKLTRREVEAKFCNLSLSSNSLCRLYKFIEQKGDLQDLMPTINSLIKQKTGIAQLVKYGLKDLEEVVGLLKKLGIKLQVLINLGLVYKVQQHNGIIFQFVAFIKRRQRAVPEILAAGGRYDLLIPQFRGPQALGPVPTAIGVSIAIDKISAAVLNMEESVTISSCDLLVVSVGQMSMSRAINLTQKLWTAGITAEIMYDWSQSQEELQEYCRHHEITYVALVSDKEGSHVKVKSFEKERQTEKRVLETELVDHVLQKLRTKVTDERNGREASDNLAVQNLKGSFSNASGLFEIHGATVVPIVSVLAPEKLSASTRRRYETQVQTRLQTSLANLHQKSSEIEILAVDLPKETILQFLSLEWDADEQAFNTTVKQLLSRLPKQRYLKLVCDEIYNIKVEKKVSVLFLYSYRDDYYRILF

Turning to `CN(C)Cc1nc2cc(Nc3nc4cncc(-c5cnc6ccccc6c5)n4n3)ccc2[nH]1` [Compound A10, (2-dimethylaminomethyl-1H-benzoimidazol-5-yl)-(5-quinolin-3-yl-[1,2,4]triazolo[1,5-a]pyrazin-2-yl)-amine], the IC50 against GCN2 was less than 1000 nM; on SYK, 1000 to 5000 nM.
With `Cn1cc(-c2cncc3nc(Nc4ccc(S(C)(=O)=O)cc4)nn23)cn1` [Compound A11, (4-methanesulfonyl-phenyl)-[5-(1-methyl-1H-pyrazol-4-yl)-[1,2,4]triazolo[1,5-a]pyrazin-2-yl]-amine], the IC50 at GCN2 and on SYK was 1000 to 5000 nM in each case.
Consider `Cn1cc(-c2cncc3nc(Nc4ccc5c(c4)NC(=O)C5(C)C)nn23)cn1` [Compound A13, 3,3-dimethyl-6-[5-(1-methyl-1H-pyrazol-4-yl)-[1,2,4]triazolo[1,5-a]pyrazin-2-ylamino]-1,3-dihydro-indol-2-one], for which the IC50 at GCN2 and at SYK was less than 1000 nM each time.
Regarding `CN(C)Cc1nc2cc(Nc3nc4cncc(-c5cnn(C)c5)n4n3)ccc2[nH]1` [Compound A14], the IC50 on GCN2 was less than 1000 nM; at SYK it was 1000 to 5000 nM.
Turning to `O=C1Cc2cc(Nc3nc4cncc(-c5ccc(N6CCOCC6)cc5)n4n3)ccc2N1` [Compound A15, 5-[5-(4-morpholin-4-yl-phenyl)-[1,2,4]triazolo[1,5-a]pyrazin-2-ylamino]-1,3-dihydro-indol-2-one], the values for the IC50 at GCN2 and at SYK were less than 1000 nM and 1000 to 5000 nM, respectively.
For `c1cncc(Nc2nc3cncc(-c4ccc(N5CCOCC5)cc4)n3n2)c1` [Compound A16, [5-(4-morpholin-4-yl-phenyl)-[1,2,4]triazolo[1,5-a]pyrazin-2-yl]-pyridin-3-yl-amine], at GCN2, the concentration for half-maximal inhibition (IC50) is less than 1000 nM. Besides, the “SYK (enzyme assay) % at 3 μM” value on SYK is recorded as 1.5@3%.
As to `Cc1cc(Nc2nc3cncc(-c4ccc(N5CCOCC5)cc4)n3n2)ccc1N1CCN(C)CC1` [Compound A17, [3-methyl-4-(4-methyl-piperazin-1-yl)-phenyl]-[5-(4-morpholin-4-yl-phenyl)-[1,2,4]triazolo[1,5-a]pyrazin-2-yl]-amine], the IC50 was less than 1000 nM on GCN2 and 1000 to 5000 nM on SYK.
In the case of `Clc1cn2nc(Nc3cccnc3)nc2cn1` [Compound A20], the IC50 at GCN2 was in the range of 1000 to 5000 nM. At SYK, the “SYK (enzyme assay) % at 3 μM” value is listed as 1@3%.
The like results for `COc1cccc(Nc2nc3cnc(Br)cn3n2)c1` [Compound A22] were, in that order, less than 1000 nM and −15@3%.
The like results for `c1cncc(Nc2nc3cnc(-c4cccnc4)cn3n2)c1` [Compound A25, pyridin-3-yl-(6-pyridin-3-yl-[1,2,4]triazolo[1,5-a]pyrazin-2-yl]-amine] were, in that order, 1000 to 5000 nM and −8@3%.
The like results for `Fc1ccc(-c2cncc3nc(Nc4cccnc4)nn23)cc1` [Compound A27, [5-(4-fluoro-phenyl)-[1,2,4]triazolo[1,5-a]pyrazin-2-yl]-pyridin-3-yl-amine] were, in that order, 1000 to 5000 nM and −6@3%.
In the case of `COc1cccc(Nc2nc3cncc(-c4ccccc4)n3n2)c1` [Compound A28], the IC50 at GCN2 was less than 1000 nM. Besides, the “SYK (enzyme assay) % at 3 μM” value on SYK was −2@3%.
`COc1cccc(Nc2nc3cncc(-c4cnn(C)c4)n3n2)c1` [Compound A30] had a half-inhibitory concentration (IC50) against GCN2 of less than 1000 nM. Besides, the “SYK (enzyme assay) % at 3 μM” value on SYK is listed as −33@3%.
In the case of `c1cc(N2CCOCC2)ccc1Nc1nc2cncc(-c3cn[nH]c3)n2n1` [Compound A31, (4-morpholin-4-yl-phenyl)-[5-(1H-pyrazol-4-yl)-[1,2,4]triazolo[1,5-a]pyrazin-2-yl]-amine], the figures for the IC50 against GCN2 and at SYK were 1000 to 5000 nM and less than 1000 nM, respectively.
The compound `c1ccc2ncc(-c3cncc4nc(Nc5ccc(N6CCOCC6)cc5)nn34)cc2c1` [Compound A32, (4-morpholin-4-yl-phenyl)-(5-quinolin-3-yl-[1,2,4]triazolo[1,5-a]pyrazin-2-yl)-amine] displayed an IC50 against GCN2 of 1000 to 5000 nM. Further, the “SYK (enzyme assay) % at 3 μM” value at SYK is −35@3%.
Turning to `CC(C)(C#N)c1ccc(-c2cncc3nc(Nc4ccc(N5CCOCC5)cc4)nn23)cc1` [Compound A34, 2-Methyl-2-{4-[2-(4-morpholin-4-yl-phenylamino)-[1,2,4]triazolo[1,5-a]pyrazin-5-yl]-phenyl}-propionitrile], the IC50 on GCN2 and at SYK was 1000 to 5000 nM throughout.
Consider `Cn1cc(-c2cncc3nc(Nc4ccc(N5CCOCC5)cc4)nn23)cn1` [Compound A35, [5-(1-methyl-1H-pyrazol-4-yl)-[1,2,4]triazolo[1,5-a]pyrazin-2-yl]-(4-morpholin-4-yl-phenyl)-amine], for which the IC50 against GCN2 and on SYK was less than 1000 nM in each case.
Consider `c1ccc(-c2ccccc2-c2cncc3nc(Nc4ccc(N5CCOCC5)cc4)nn23)cc1` [Compound A36, (5-biphenyl-2-yl-[1,2,4]triazolo[1,5-a]pyrazin-2-yl)-(4-morpholin-4-yl-phenyl)-amine], for which the “GCN2 (enzyme assay) % at 10 μM” value on GCN2 was −4@10%. The IC50 at SYK lay within 1000 to 5000 nM.
The like results for `COc1cc(Nc2nc3cncc(-c4ccccc4-c4ccccc4)n3n2)cc(OC)c1` [Compound A37] were, in that order, 3@10% and 1000 to 5000 nM.
In the case of `Cc1ncc2nc(Nc3ccc(N4CCOCC4)cc3)nn2c1-c1cnn(C)c1` [Compound A44, [6-methyl-5-(1-methyl-1H-pyrazol-4-yl)-[1,2,4]triazolo[1,5-a]pyrazin-2-yl]-(4-morpholin-4-yl-phenyl)-amine], the figures for the IC50 against GCN2 and at SYK were 5000 to 10000 nM and 1000 to 5000 nM, respectively.
For `Cn1cc(-c2c(-c3ccccc3)ncc3nc(Nc4ccc(N5CCOCC5)cc4)nn23)cn1` [Compound A45, [5-(1-methyl-1H-pyrazol-4-yl)-6-phenyl-[1,2,4]triazolo[1,5-a]pyrazin-2-yl]-(4-morpholin-4-yl-phenyl)-amine], the “GCN2 (enzyme assay) % at 10 μM” value on GCN2 is recorded as 2@10%. Besides, the IC50 at SYK was less than 1000 nM.
The like results for `Cn1cc(-c2ncc3nc(Nc4ccc(N5CCOCC5)cc4)nn3c2-c2cnn(C)c2)cn1` [Compound A46, [5,6-Bis-(1-methyl-1H-pyrazol-4-yl)-[1,2,4]triazolo[1,5-a]pyrazin-2-yl]-(4-morpholin-4-yl-phenyl)-amine] were, in that order, −8@10% and 1000 to 5000 nM.
For `Cn1cc(-c2cncc3nc(Nc4ccc(C5(C#N)CC5)cc4)nn23)cn1` [Compound A47, 1-{4-[5-(1-methyl-1H-pyrazol-4-yl)-[1,2,4]triazolo[1,5-a]pyrazin-2-ylamino]-phenyl}-cyclopropanecarbonitrile], the IC50 against GCN2 and at SYK was less than 1000 nM each time.
On to `CN1CCN(c2ccc(Nc3nc4cncc(-c5cnn(CCN6CCOCC6)c5)n4n3)cc2)CC1` [Compound A48, [4-(4-methyl-piperazin-1-yl)-phenyl]-{5-[1-(2-morpholin-4-yl-ethyl)-1H-pyrazol-4-yl]-[1,2,4]triazolo[1,5-a]pyrazin-2-yl}-amine], for which the results for the IC50 against GCN2 and on SYK were less than 1000 nM and 5000 to 10000 nM, respectively.
